Values of other authors, collected in US20240170163A1, “SYSTEMS AND METHODS FOR DETECTING NEW DRUG PROPERTIES IN TARGET-BASED DRUG-DRUG SIMILARITY NETWORKS” (priority 2021, published 2024).
Each block holds one molecule with its values, some of them ahead of it.

Assays:
prostate carcinoma cells = conditions: in vitro
[1] = tested on: PR-transfected MDA-MB-231 cells
Klebsiella pneumoniae = conditions: in vitro
Candida albicans = conditions: in vitro
Candida = conditions: liquid formulation, in vitro
[2] = tested on: chronic lymphocytic leukemia (CLL)

Compound: NC(Cn1ccc(=O)c(O)c1)C(=O)O (stereo not shown) [Mimosine]
- cell proliferation of prostate carcinoma cells (prostate carcinoma cells): attenuates cell proliferation

Compound: CC(=O)[C@H]1CC[C@H]2[C@@H]3CCC4=CC(=O)CC[C@]4(C)[C@H]3CC[C@]12C [Progesterone]
- expression of genes involved in cell proliferation and metastasis [1]: suppressed the expression

Compound: COC(F)(F)C(Cl)Cl [Methoxyflurane]
- inhibitory effects on cultures of Klebsiella pneumoniae (Klebsiella pneumoniae): excellent inhibitory effects
- inhibitory effects on cultures of Candida albicans (Candida albicans): excellent inhibitory effects

Compound: FC(F)OC(Cl)C(F)(F)F (stereo not shown) [Isoflurane]
- inhibitory effects on cultures of Klebsiella pneumoniae (Klebsiella pneumoniae): excellent inhibitory effects
- inhibitory effects on cultures of Candida albicans (Candida albicans): excellent inhibitory effects
- anti-Candida activity compared with Amphotericin B (Candida): better anti-Candida activity

Compound: N=C(N)NC(=O)c1nc(Cl)c(N)nc1N [Amiloride]
- activation of the dendritic cells (dendritic cells): inhibits the activation
- inflammation (dendritic cells; besides its diuretic effects): ameliorates the inflammation

Compound: COc1cc([C@@H]2c3cc4c(cc3[C@H](O)[C@H]3COC(=O)[C@H]23)OCO4)cc(OC)c1OC [Podofilox]
- cytotoxicity in chronic lymphocytic leukemia (CLL) [2]: potent cytotoxic agent

- topoisomerase activity in breast cancer (breast cancer): inhibits topoisomerase activity
Compound: CCN(CC)CCCC(C)Nc1c2ccc(Cl)cc2nc2ccc(OC)cc12 (stereo not shown) [Quinacrine]
- DNA damage in breast cancer (breast cancer): induces DNA damage
- apoptosis / cell cycle effect in breast cancer (breast cancer): produces apoptosis by blocking cells in S-phase
